The record followed here is US20250163104A1, “MACROCYCLIC IMMUNOMODULATORS” (priority 2021, published 2025).

pIC50: −log10 of the molar value. Where a SMILES comes first, the peptide text is derived from it. Bridges are numbered along the chain shown (N, C = ends). [ ]: non-standard residue; d: D form. The star is where a group is joined. ξ: configuration not given here. Phe(3-CF3) = N[C@@H](Cc1cccc(C(F)(F)F)c1)C(=O)O; Ala(morpholin-4-yl) = N[C@@H](CN1CCOCC1)C(=O)O; Phe(4-COOH) = N[C@@H](Cc1ccc(C(=O)O)cc1)C(=O)O; Bip = N[C@@H](Cc1ccc(-c2ccccc2)cc1)C(=O)O; Phe(4-NH2) = Nc1ccc(C[C@H](N)C(=O)O)cc1; Phe(3-Me) = Cc1cccc(C[C@H](N)C(=O)O)c1; Val(3-OH) = CC(C)(O)[C@H](N)C(=O)O; 4Pal = N[C@@H](Cc1ccncc1)C(=O)O; 3Thi = N[C@@H](Cc1ccsc1)C(=O)O; Cha = N[C@@H](CC1CCCCC1)C(=O)O; Cit = NC(=O)NCCC[C@H](N)C(=O)O; Thr(3ξ) = CC(O)[C@H](N)C(=O)O; dNle = CCCC[C@@H](N)C(=O)O; Carboxymethyl = O=C(O)C*; Orn = NCCC[C@H](N)C(=O)O; Pra = C#CC[C@H](N)C(=O)O; Dab = NCC[C@H](N)C(=O)O; Dap = NC[C@H](N)C(=O)O

In the experiment the target is T1, human PD-1 / PD-L1-Ig binding on Jurkat cell line over-expressing human PD-1 (Jurkat-PD-1) (Homo sapiens, UniProt Q15116).
T1 construct: expressed in transfected cells; host or cells: Jurkat
T1 sequence (Q15116 25-288): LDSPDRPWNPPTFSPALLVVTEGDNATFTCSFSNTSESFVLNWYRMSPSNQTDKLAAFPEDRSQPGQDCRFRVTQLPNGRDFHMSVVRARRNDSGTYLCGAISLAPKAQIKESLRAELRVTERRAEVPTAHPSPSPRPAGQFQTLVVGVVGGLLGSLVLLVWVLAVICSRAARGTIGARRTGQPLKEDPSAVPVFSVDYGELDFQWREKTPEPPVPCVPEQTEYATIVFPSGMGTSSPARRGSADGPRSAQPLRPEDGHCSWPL
The experiment can be described thus: Jurkat-PD-1 Cell Binding High-Content Screening Assay (CBA). It is filed as cell-based. As to conditions: Jurkat-PD-1 cells, PE-labeled PD-L1-Ig 20 nM final; read-out: Jurkat HPD1_PDL1 IC50. The procedure, abridged: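 Cell-bound PE-labeled PD-L1-Ig (20 nM final, 1 h) measured by high-content imaging after fixation and Hoechst 33342 counterstain. Compound was applied first for 2 h at 37° C. to Jurkat cells over-expressing human PD-1 in DMEM with 10% FCS.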

Broadly, the pIC50 is the negative decadic logarithm of the IC50, by convention in mol/L. For the molecule `CC[C@H](C)[C@@H]1NC(=O)[C@H](Cc2ccc(-c3ccccc3)cc2)NC(=O)[C@H](C(C)C)NC(=O)[C@H](Cc2c[nH]c3ccccc23)NC(=O)[C@H](CC(=O)O)NC(=O)[C@H](Cc2ccc(O)cc2)NC(=O)[C@H](CN)NC(=O)CSC[C@@H](C(=O)N[C@@H](C)C(N)=O)NC(=O)[C@H]([C@@H](C)O)NC(=O)[C@H](C(C)C)NC(=O)[C@H](CC(C)C)NC(=O)[C@H](CCCNC(=N)N)NC(=O)[C@@H](CC(C)C)NC(=O)[C@H](CCCN)NC1=O` [Compound 1141] ({CH2CO}-[Dap]YDWV[Bip]I[Orn][dL]RLVTCA-NH2; thioether N-14), the pIC50 was 7.51.
Consider `CC(C)C[C@@H]1NC(=O)[C@H](CCN)NC(=O)[C@@H](CC(C)C)NC(=O)[C@H](CCCN)NC(=O)[C@H](CCCNC(=N)N)NC(=O)[C@H](Cc2ccc(-c3ccccc3)cc2)NC(=O)[C@H](C(C)C)NC(=O)[C@H](Cc2c[nH]c3ccccc23)NC(=O)[C@H](CC(=O)O)NC(=O)[C@H](Cc2ccc(O)cc2)NC(=O)[C@H](CC(N)=O)NC(=O)CSC[C@@H](C(=O)N[C@@H](C)C(N)=O)NC(=O)[C@H]([C@@H](C)O)NC(=O)[C@H](C(C)C)NC1=O` [Compound 1005] ({CH2CO}-NYDWV[Bip]R[Orn][dL][Dab]LVTCA-NH2; thioether N-14), for which the pIC50 is 7.45.
As to `CC(C)C[C@H]1NC(=O)[C@H](CCCN)NC(=O)[C@H](CCCNC(N)=O)NC(=O)[C@H](Cc2ccc(-c3ccccc3)cc2)NC(=O)[C@H](C(C)C)NC(=O)[C@H](Cc2c[nH]c3ccccc23)NC(=O)[C@H](CC(=O)O)NC(=O)[C@H](Cc2ccc3ccncc3c2)NC(=O)[C@H](CN)NC(=O)CSC[C@@H](C(=O)N[C@@H](C)C(N)=O)NC(=O)[C@H]([C@@H](C)O)NC(=O)[C@H](C(C)C)NC(=O)[C@H](CC2CCCCC2)NC(=O)[C@H](CCN)NC1=O` [Compound 2117], the pIC50 was 7.73.
For `CC(C)C[C@H]1NC(=O)[C@H](CCCN)NC(=O)[C@H](CCCCN)NC(=O)[C@H](Cc2ccc(-c3ccccc3)cc2)NC(=O)[C@H](C(C)C)NC(=O)[C@H](Cc2c[nH]c3ccccc23)NC(=O)[C@H](CC(=O)O)NC(=O)[C@H](Cc2ccncc2)NC(=O)[C@H](CN)NC(=O)CSC[C@@H](C(=O)N[C@@H](CC(N)=O)C(N)=O)NC(=O)[C@H](C(C)O)NC(=O)[C@H](C(C)C)NC(=O)[C@H](CC2CCCCC2)NC(=O)[C@H](CCN)NC1=O` (stereo partly drawn) [Compound 2542] ({CH2CO}-[Dap][4Pal]DWV[Bip]K[Orn][dL][Dab][Cha]V[Thr(3ξ)]CN-NH2; thioether N-14) the value was 7.69.
`C#CC[C@H](NC(=O)[C@H](CCN)NC(=O)[C@@H]1CSCC(=O)N[C@@H](CN2CCOCC2)C(=O)N[C@@H](Cc2ccc(OCC(=O)O)cc2)C(=O)N[C@@H](CC(=O)O)C(=O)N[C@@H](Cc2cccc(C)c2)C(=O)N[C@@H](Cc2ccc(OCC(=O)O)cc2)C(=O)N[C@@H](Cc2ccc(-c3ccccc3)cc2)C(=O)N[C@@H](Cc2ccc(OCC(=O)O)cc2)C(=O)N[C@@H](CCCN)C(=O)N[C@H](CC(C)C)C(=O)N[C@@H](CCN)C(=O)N[C@@H](CC2CCCCC2)C(=O)N[C@@H](C(C)(C)O)C(=O)N[C@@H]([C@@H](C)O)C(=O)N1)C(N)=O` [Compound 1859] ({CH2CO}-[Ala(morpholin-4-yl)]Y(Carboxymethyl)D[Phe(3-Me)]Y(Carboxymethyl)[Bip]Y(Carboxymethyl)[Orn][dL][Dab][Cha][Val(3-OH)]TC[Dab][Pra]-NH2; thioether N-14): the pIC50 was 8.68.
For the molecule `CC(C)C[C@H]1NC(=O)[C@H](CCCN)NC(=O)[C@H](CCC(=O)O)NC(=O)[C@H](Cc2ccc(-c3ccccc3)cc2)NC(=O)[C@H](C(C)C)NC(=O)[C@H](Cc2c[nH]c3ccccc23)NC(=O)[C@H](CC(=O)O)NC(=O)[C@H](Cc2cccs2)NC(=O)[C@H](Cc2ccc(OCC(=O)O)cc2)NC(=O)CSC[C@@H](C(=O)N[C@@H](C)C(N)=O)NC(=O)[C@H]([C@@H](C)O)NC(=O)[C@H](C(C)C)NC(=O)[C@H](CC2CCCCC2)NC(=O)[C@H](CCN)NC1=O` [Compound 2193], the pIC50 is 7.63.
Take `CC(C)C[C@@H]1NC(=O)[C@H](CCN)NC(=O)[C@@H](CC(C)C)NC(=O)[C@H](CCCN)NC(=O)[C@H](CCCNC(N)=O)NC(=O)[C@H](Cc2ccc(-c3ccccc3)cc2)NC(=O)[C@H](C(C)C)NC(=O)[C@H](Cc2c[nH]c3ccccc23)NC(=O)[C@H](CC(=O)O)NC(=O)[C@H](Cc2ccc(OCC(=O)O)cc2)NC(=O)[C@H](CN)NC(=O)CSC[C@@H](C(=O)N[C@@H](C)C(N)=O)NC(=O)[C@H]([C@@H](C)O)NC(=O)[C@H](C(C)C)NC1=O` [Compound 1241] ({CH2CO}-[Dap]Y(Carboxymethyl)DWV[Bip][Cit][Orn][dL][Dab]LVTCA-NH2; thioether N-14): the pIC50 is 7.56.
For `Cc1cccc(C[C@@H]2NC(=O)[C@H](CC(=O)O)NC(=O)[C@H](Cc3ccc(OCC(=O)O)cc3)NC(=O)[C@H](Cc3ccncc3)NC(=O)CSC[C@@H](C(=O)N[C@H](CC(N)=O)C(N)=O)NC(=O)[C@H](CO)NC(=O)[C@H](C(C)(C)O)NC(=O)[C@H](CC3CCCCC3)NC(=O)[C@H](CCN)NC(=O)[C@@H](CC(C)C)NC(=O)[C@H](CCCN)NC(=O)[C@H](Cc3ccc(OCC(=O)O)cc3)NC(=O)[C@H](Cc3ccc(-c4ccccc4)cc3)NC(=O)[C@H](Cc3ccc(C(=O)O)cc3)NC2=O)c1` [Compound 2628] ({CH2CO}-[4Pal]Y(Carboxymethyl)D[Phe(3-Me)][Phe(4-COOH)][Bip]Y(Carboxymethyl)[Orn][dL][Dab][Cha][Val(3-OH)]SC[dN]-NH2; thioether N-14) the value was 7.69.
The same measure for `CC[C@H](C)[C@@H]1NC(=O)[C@H](Cc2ccc(-c3ccccc3)cc2)NC(=O)[C@H](C(C)C)NC(=O)[C@H](Cc2c[nH]c3ccccc23)NC(=O)[C@H](CC(=O)O)NC(=O)[C@H](Cc2ccc(OCC(=O)O)cc2)NC(=O)[C@H](CN)NC(=O)CSC[C@@H](C(=O)N[C@@H](C)C(N)=O)NC(=O)[C@H]([C@@H](C)O)NC(=O)[C@H](C(C)C)NC(=O)[C@H](CC2CCCCC2)NC(=O)[C@H](Cc2cnc[nH]2)NC(=O)[C@@H](CC(C)C)NC(=O)[C@H](CCCN)NC1=O` [Compound 1589]: 7.79; for `CC(C)C[C@H]1NC(=O)[C@H](CCCN)NC(=O)[C@H](Cc2ccc(C(=O)O)cc2)NC(=O)[C@H](Cc2ccc(-c3ccccc3)cc2)NC(=O)[C@H](Cc2ccc(N)cc2)NC(=O)[C@H](Cc2cccc(C(F)(F)F)c2)NC(=O)[C@H](CC(=O)O)NC(=O)[C@H](Cc2ccc(C(=O)O)cc2)NC(=O)[C@H](CN2CCOCC2)NC(=O)CSC[C@@H](C(=O)N[C@@H](CCN)C(N)=O)NC(=O)[C@H](CCC(=O)O)NC(=O)[C@H](C(C)C)NC(=O)[C@H](CC2CCCCC2)NC(=O)[C@H](CCN)NC1=O` [Example 2743] ({CH2CO}-[Ala(morpholin-4-yl)][Phe(4-COOH)]D[Phe(3-CF3)][Phe(4-NH2)][Bip][Phe(4-COOH)][Orn][dL][Dab][Cha]VEC[Dab]-NH2; thioether N-14): 8.66; for `CC[C@H](C)[C@@H]1NC(=O)[C@H](Cc2ccc(-c3ccccc3)cc2)NC(=O)[C@H](C(C)C)NC(=O)[C@H](Cc2cccc(C)c2)NC(=O)[C@H](CC(=O)O)NC(=O)[C@H](Cc2ccc(C(=O)O)cc2)NC(=O)[C@H](Cc2ccc(OCC(=O)O)cc2)NC(=O)CSC[C@@H](C(=O)N[C@@H](C)C(N)=O)NC(=O)[C@H]([C@@H](C)O)NC(=O)[C@H](C(C)C)NC(=O)[C@H](CC(C)C)NC(=O)[C@H](CCN)NC(=O)[C@@H](CC(C)C)NC(=O)[C@H](CCCN)NC1=O` [Compound 1249] ({CH2CO}-Y(Carboxymethyl)[Phe(4-COOH)]D[Phe(3-Me)]V[Bip]I[Orn][dL][Dab]LVTCA-NH2; thioether N-14): 8.34.
`CCCC[C@H]1NC(=O)[C@H](CCCN)NC(=O)[C@H](CCC(=O)O)NC(=O)[C@H](Cc2ccc(-c3ccccc3)cc2)NC(=O)[C@H](C(C)C)NC(=O)[C@H](Cc2c[nH]c3ccccc23)NC(=O)[C@H](CC(=O)O)NC(=O)[C@H](Cc2ccncc2)NC(=O)[C@H](Cc2ccc(OCC(=O)O)cc2)NC(=O)CSC[C@@H](C(=O)N[C@@H](C)C(N)=O)NC(=O)[C@H]([C@@H](C)O)NC(=O)[C@H](C(C)C)NC(=O)[C@H](CC2CCCCC2)NC(=O)[C@H](CCN)NC1=O` [Compound 1451] ({CH2CO}-Y(Carboxymethyl)[4Pal]DWV[Bip]E[Orn][dNle][Dab][Cha]VTCA-NH2; thioether N-14): the pIC50 is 7.99.
The same measure for `Cc1cccc(C[C@@H]2NC(=O)[C@H](CC(=O)O)NC(=O)[C@H](Cc3ccc(OCC(=O)O)cc3)NC(=O)[C@H](Cc3ccsc3)NC(=O)CSC[C@@H](C(=O)N[C@@H](CCN)C(N)=O)NC(=O)[C@H](CO)NC(=O)[C@H](C(C)(C)O)NC(=O)[C@H](CC3CCCCC3)NC(=O)[C@H](CCN)NC(=O)[C@@H](CC(C)C)NC(=O)[C@H](CCCN)NC(=O)[C@H](Cc3ccc(OCC(=O)O)cc3)NC(=O)[C@H](Cc3ccc(-c4ccccc4)cc3)NC(=O)[C@H](Cc3ccc(OCC(=O)O)cc3)NC2=O)c1` [Compound 2615] ({CH2CO}-[3Thi]Y(Carboxymethyl)D[Phe(3-Me)]Y(Carboxymethyl)[Bip]Y(Carboxymethyl)[Orn][dL][Dab][Cha][Val(3-OH)]SC[Dab]-NH2; thioether N-14): 8.43; for `CC(C)C[C@@H]1NC(=O)[C@H](CCN)NC(=O)[C@@H](CC(C)C)NC(=O)[C@H](CN)NC(=O)[C@H](C(C)C)NC(=O)[C@H](Cc2ccc(-c3ccccc3)cc2)NC(=O)[C@H](C(C)C)NC(=O)[C@H](Cc2c[nH]c3ccccc23)NC(=O)[C@H](CC(=O)O)NC(=O)[C@H](Cc2ccc(O)cc2)NC(=O)[C@H](CC(N)=O)NC(=O)CSC[C@@H](C(=O)N[C@@H](C)C(N)=O)NC(=O)[C@H]([C@@H](C)O)NC(=O)[C@H](C(C)C)NC1=O` [Compound 1028] ({CH2CO}-NYDWV[Bip]V[Dap][dL][Dab]LVTCA-NH2; thioether N-14): 7.84.
